Legend:
[1] = biological target: human coagulation factor Xa (Homo sapiens (Human), UniProt P00742); assay: Determination of inhibition of factor Xa; type: biochemical
Experimental: Enzyme: human coagulation factor Xa; manufacturer: R&D System;
Substrate: Mca-RPKPVE-Nval-WRK(Dnp)-NH2; manufacturer: R&D;
The test compounds were dissolved in assay buffer (50 mM Tris, 150 mM NaCl, 10 mM CaCl2, 0.05% Brij35, pH 7.5) at a final concentration of 10 μM and 1 μM. Coagulation factor Xa and test compound were added to the well plate, and incubation was conducted at room temperature for 10 minutes after mixed thoroughly. The substrate (Mca-RPKPVE-Nval-WRK(Dnp)-NH2) was added to initiate the reaction. For reading fluorescence signal value, enzyme kinetic mode was used. The wavelength of excitation light was 320 nm, and the wavelength of emission light was 400 nm. The IC50 was calculated in a manner similar to experimental Example 1.

human plasma = assay: Effect on coagulation in vitro (aPTT and PT), human plasma; details: final concentration 10NM (so in the source), n = 3
Excerpt: aPTT reagent (purchased from Sysmex);
PT reagent (purchased from Sysmex);
The coagulation pathway includes the extrinsic coagulation pathway and the intrinsic coagulation pathway. The parameter associated with the extrinsic coagulation pathway is prothrombin time, expressed as PT; the parameter associated with the intrinsic coagulation pathway is activated partial thromboplatin time, expressed as aPTT.
After anticoagulation, blood of different species (rabbit, human) was subjected to centrifugation. The upper layer of plasma was collected and divided into several aliquots. The test compounds were added to make the final concentration of test compound to be 10NM. Incubation was conducted at 37° C. after mixed thoroughly. Then the samples were put into a coagulation analyzer (Sysmex CA1500, Sysmex, Japan) for the aPTT and PT assays. Blank plasma (without test compound) was used as a reference, and the ratio values of aPTT and PT of all samples and blank plasmas were analyzed, the results are shown in table 3.

[2] = Pharmacokinetics study in male rabbits, intravenous injection; type: in vivo
Experimental: Pharmacokinetics properties were examined by administering compound of the present disclosure and the reference compound (BMS-962212) to male rabbits through intravenous injection (IV). Blood was collected at various time points after administration. The blood was anticoagulated with EDTA-K2. Plasma samples were obtained by centrifugation, and retained at −80° C. The plasma samples were processed to precipitate the proteins and then analyzed by LC-MS/MS.
(§1) The pharmacokinetic parameters were calculated using WinNonlin 6.3 software by employing a non-compartmental model.

[3] = Pharmacokinetics study in Beagle dogs, intravenous injection; type: in vivo, Beagle dog
Experimental: Pharmacokinetics properties were examined by administering compound of the present disclosure and the reference compound (BMS-962212) to Beagle dog through intravenous injection (IV). Blood was collected at various time points after administration. The blood was anticoagulated with EDTA-K2. Plasma samples were obtained by centrifugation, and retained at −80° C. The plasma samples were processed to precipitate the proteins and then analyzed by LC-MS/MS.
as §1

[4] = Repeated dose toxicity study in SD rats, intravenous infusion, daily for 14 days; type: in vivo; details: rat, in vivo, daily for 14 days, SD rats, read-out: No-observed-adverse-effect level (NOAEL)
Experimental: The administration was repeated daily for 14 days, while clinical observation, body weight and food intake were recorded. […] Observation by gross anatomy and examination of histopathology were also conducted.

in vivo = details: SD, rat, iv
Experimental: The clinical observation was carried out for 7 days after a single dose, and the body weight of the animals were measured. On the 8th day, blood samples were taken after anesthesia for detection of hematology, blood biochemistry, coagulation and other indicators. Observation was also conducted by gross anatomy.

Sequence of human coagulation factor Xa (P00742 whole entry, looked up): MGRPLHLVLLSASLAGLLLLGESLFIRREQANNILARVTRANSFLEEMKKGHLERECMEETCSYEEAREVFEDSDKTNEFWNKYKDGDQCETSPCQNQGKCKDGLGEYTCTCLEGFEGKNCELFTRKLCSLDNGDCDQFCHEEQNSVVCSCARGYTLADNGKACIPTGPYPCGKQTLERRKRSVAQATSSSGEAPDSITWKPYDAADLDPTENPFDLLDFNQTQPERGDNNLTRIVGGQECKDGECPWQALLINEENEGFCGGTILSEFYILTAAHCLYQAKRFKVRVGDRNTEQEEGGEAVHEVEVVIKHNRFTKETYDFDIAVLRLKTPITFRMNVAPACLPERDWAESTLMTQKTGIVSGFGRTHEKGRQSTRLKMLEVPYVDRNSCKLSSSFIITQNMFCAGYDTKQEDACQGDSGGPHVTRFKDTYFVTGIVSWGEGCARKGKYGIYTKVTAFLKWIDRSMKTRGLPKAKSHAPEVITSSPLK
Sequence of human coagulation factor Xa (P00742 whole entry, looked up): as above

In the case of N[C@@H](CCCCNC(=O)CN1CC=C(c2cccc3c2CCN(C(=O)[C@H]2CC(c4cccc(Cl)c4F)=NO2)[C@@H]3C(=O)Nc2ccc(C(=O)O)cc2)CC1)C(=O)O [Example 5, 4-((S)-5-(1-(2-(((S)-5-amino-5-carboxypentyl)amino)-2-oxoethyl)-1,2,3,6-tetrahydropyridin-4-yl)-2-((R)-3-(3-chloro-2-fluorophenyl)-4,5-dihydroisoxazole-5-carbonyl)-1,2,3,4-tetrahydroisoquinoline-1-carboxamido)benzoic acid], the “inhibitory effect on coagulation factor Xa (in words)” value [1] is reported as “no significant inhibitory effect”, the IC50 ([1]; tested at final concentration of 10 μM and 1 μM) is reported as about 10 µM and the “Ratio of PT to that of blank plasma” value (human plasma) is reported as 1.03. The “Ratio of aPTT to that of blank plasma” value (human plasma) was 2.95, the “AUClast relative to that of the reference compound” value ([2]; 1 mg/kg each) was 12.04 times and the “Cmax relative to that of the reference compound” value ([2]; 1 mg/kg each) was 4.74 times. For the same compound, the “T1/2 relative to that of the reference compound” value ([2]; 1 mg/kg each) was 2.65 times, the AUC(0-inf) ([2]; male, rabbit, plasma, 1 mg/kg) was 5740 ± 2270 ng·h/mL and the AUC(0-t) ([2]; male, rabbit, plasma, 1 mg/kg) was 5730 ± 2270 ng·h/mL. It also gave a Cmax ([2]; male, rabbit, plasma, 1 mg/kg) of 6950 ± 1900 ng/mL, a Vd ([2]; male, rabbit, plasma, 1 mg/kg) of 0.3 ± 0.09 L/kg and a clearance ([2]; male, rabbit, plasma, 1 mg/kg) of 3.18 ± 1.06 mL/min/kg. For the same compound, the half-life ([2]; male, rabbit, plasma, 1 mg/kg) was 1.14 ± 0.26 h, the “apparent volume of distribution as share of that of the reference compound” value ([2]; same dosage 1 mg/kg) was 23% and the “AUClast relative to that of the reference compound” value ([3]; 0.5 mg/kg each) was 20.38 times. The “Cmax relative to that of the reference compound” value ([3]; 0.5 mg/kg each) was 2.67 times, the “T1/2 relative to that of the reference compound” value ([3]; 0.5 mg/kg each) was 7.25 times and the AUC(0-inf) ([3]; dog, plasma, 0.5 mg/kg) was 18100 ± 683 ng·h/mL. For the same compound, the AUC(0-t) ([3]; dog, plasma, 0.5 mg/kg) was 17200 ± 370 ng·h/mL, the Cmax ([3]; dog, plasma, 0.5 mg/kg) was 3950 ± 808 ng/mL and the Vd ([3]; dog, plasma, 0.5 mg/kg) was 0.24 ± 0.02 L/kg. For the same compound, the clearance ([3]; dog, plasma, 0.5 mg/kg) was 0.46 ± 0.02 mL/min/kg, the half-life ([3]; dog, plasma, 0.5 mg/kg) was 6.02 ± 0.8 h and the “apparent volume of distribution as share of that of the reference compound” value ([3]; same dosage 0.5 mg/kg) was 34%. It also gave an NOAEL at 14 days [4] of 60 mg/kg and an MTD at 7 days (in vivo) of at least 200 mg/kg.

— patent publication US11541049B2, “Tetrahydroisoquinoline derivatives, preparation process and use thereof” (SICHUAN KELUN-BIOTECH BIOPHARMACEUTICAL CO., LTD., priority 2018, dated 2023)
